± gives the uncertainty stated by the source.
Assay: xn = mol fraction of the nth substance listed

CCCCC + CCCCCCCCCCCC
Details	viscosity [mPa·s]
293.15 K, 100 kPa, x1 = 0.0988	1.33 ± 0.02
293.15 K, 100 kPa, x1 = 0.2004	1.153 ± 0.014
293.15 K, 100 kPa, x1 = 0.2963	0.995 ± 0.012
293.15 K, 100 kPa, x1 = 0.4022	0.847 ± 0.011
293.15 K, 100 kPa, x1 = 0.5005	0.686 ± 0.009
293.15 K, 100 kPa, x1 = 0.5989	0.581 ± 0.007
293.15 K, 100 kPa, x1 = 0.7029	0.468 ± 0.006
293.15 K, 100 kPa, x1 = 0.8	0.388 ± 0.005
293.15 K, 100 kPa, x1 = 0.9011	0.304 ± 0.004
298.15 K, 100 kPa, x1 = 0.0988	1.216 ± 0.015
298.15 K, 100 kPa, x1 = 0.2004	1.054 ± 0.013
298.15 K, 100 kPa, x1 = 0.2963	0.923 ± 0.011
298.15 K, 100 kPa, x1 = 0.4022	0.79 ± 0.01
298.15 K, 100 kPa, x1 = 0.5005	0.642 ± 0.008
298.15 K, 100 kPa, x1 = 0.5989	0.548 ± 0.007
298.15 K, 100 kPa, x1 = 0.7029	0.443 ± 0.006
298.15 K, 100 kPa, x1 = 0.8	0.369 ± 0.005
298.15 K, 100 kPa, x1 = 0.9011	0.289 ± 0.004
298.15 K, 101.33 kPa, x1 = 0.1094	1.194 ± 0.015
298.15 K, 101.33 kPa, x1 = 0.2073	1.037 ± 0.013
298.15 K, 101.33 kPa, x1 = 0.299	0.9143 ± 0.012
298.15 K, 101.33 kPa, x1 = 0.4078	0.7711 ± 0.01
298.15 K, 101.33 kPa, x1 = 0.5008	0.6622 ± 0.0091
298.15 K, 101.33 kPa, x1 = 0.6031	0.5504 ± 0.0078
298.15 K, 101.33 kPa, x1 = 0.7069	0.4481 ± 0.0067
298.15 K, 101.33 kPa, x1 = 0.8062	0.3631 ± 0.0057
298.15 K, 101.33 kPa, x1 = 0.8991	0.2925 ± 0.005
303.15 K, 100 kPa, x1 = 0.0988	1.119 ± 0.014
303.15 K, 100 kPa, x1 = 0.2004	0.975 ± 0.012
303.15 K, 100 kPa, x1 = 0.2963	0.857 ± 0.011
303.15 K, 100 kPa, x1 = 0.4022	0.738 ± 0.009
303.15 K, 100 kPa, x1 = 0.5005	0.603 ± 0.008
303.15 K, 100 kPa, x1 = 0.5989	0.516 ± 0.006
303.15 K, 100 kPa, x1 = 0.7029	0.42 ± 0.005
303.15 K, 100 kPa, x1 = 0.8	0.358 ± 0.005
303.15 K, 100 kPa, x1 = 0.9011	0.275 ± 0.004
308.15 K, 100 kPa, x1 = 0.0988	1.032 ± 0.013
308.15 K, 100 kPa, x1 = 0.2004	0.906 ± 0.011
308.15 K, 100 kPa, x1 = 0.2963	0.8 ± 0.01
308.15 K, 100 kPa, x1 = 0.4022	0.693 ± 0.009
308.15 K, 100 kPa, x1 = 0.5005	0.568 ± 0.007
308.15 K, 100 kPa, x1 = 0.5989	0.489 ± 0.006
308.15 K, 100 kPa, x1 = 0.7029	0.399 ± 0.005
308.15 K, 100 kPa, x1 = 0.8	0.34 ± 0.004
313.15 K, 100 kPa, x1 = 0.0988	0.957 ± 0.012
313.15 K, 100 kPa, x1 = 0.2004	0.843 ± 0.01
313.15 K, 100 kPa, x1 = 0.2963	0.748 ± 0.009
313.15 K, 100 kPa, x1 = 0.4022	0.65 ± 0.008
313.15 K, 100 kPa, x1 = 0.5005	0.536 ± 0.007
313.15 K, 100 kPa, x1 = 0.5989	0.463 ± 0.006
313.15 K, 100 kPa, x1 = 0.7029	0.38 ± 0.005
318.15 K, 100 kPa, x1 = 0.0988	0.89 ± 0.011
318.15 K, 100 kPa, x1 = 0.2004	0.789 ± 0.01
318.15 K, 100 kPa, x1 = 0.2963	0.702 ± 0.009
318.15 K, 100 kPa, x1 = 0.4022	0.612 ± 0.008
318.15 K, 100 kPa, x1 = 0.5005	0.507 ± 0.006
318.15 K, 100 kPa, x1 = 0.5989	0.44 ± 0.006
323.15 K, 100 kPa, x1 = 0.0988	0.83 ± 0.01
323.15 K, 100 kPa, x1 = 0.2004	0.734 ± 0.009
323.15 K, 100 kPa, x1 = 0.2963	0.66 ± 0.008
323.15 K, 100 kPa, x1 = 0.4022	0.578 ± 0.007
323.15 K, 100 kPa, x1 = 0.5005	0.481 ± 0.006

CS(C)=O + CCCCCCO
101 kPa
Details	viscosity [mPa·s]
303.15 K, x1 = 0.1678	2.991 ± 0.035
303.15 K, x1 = 0.1907	2.831 ± 0.035
303.15 K, x1 = 0.3273	2.582 ± 0.029
303.15 K, x1 = 0.3639	2.288 ± 0.028
303.15 K, x1 = 0.4458	2.342 ± 0.026
303.15 K, x1 = 0.522	2.088 ± 0.026
303.15 K, x1 = 0.5483	2.171 ± 0.023
303.15 K, x1 = 0.64	2.061 ± 0.021
303.15 K, x1 = 0.6669	1.898 ± 0.024
303.15 K, x1 = 0.7228	1.983 ± 0.02
303.15 K, x1 = 0.8002	1.739 ± 0.022
303.15 K, x1 = 0.8098	1.901 ± 0.018
303.15 K, x1 = 0.8795	1.827 ± 0.017
303.15 K, x1 = 0.9231	1.722 ± 0.022
303.15 K, x1 = 0.9413	1.754 ± 0.016
313 K, x1 = 0.1163	2.459 ± 0.064
313 K, x1 = 0.203	2.239 ± 0.058
313 K, x1 = 0.4013	1.891 ± 0.049
313 K, x1 = 0.4964	1.793 ± 0.046
313 K, x1 = 0.5978	1.719 ± 0.045
313 K, x1 = 0.6873	1.666 ± 0.043
313 K, x1 = 0.7968	1.593 ± 0.041
313 K, x1 = 0.9124	1.574 ± 0.041

From the CheMixHub viscosity set
